Data: US20090191173A1, “Induction Of Neurogenesis And Stem Cell Therapy In Combination With Copolymer 1” (priority 2004, published 2009)

Tested on: neural progenitor cells (NPCs)
Test: Neurogenesis from NPCs co-cultured with microglia pre-activated by aggregated Aβ and cytokines
Assay type: cell-based, mouse
Conditions: 10 days; Aβ 5 μM 48 h, cytokines 10 ng/ml
Description: (xx) Reagents. Recombinant mouse IFN-γ and IL-4 (both containing endotoxin at a concentration below 0.1 ng/μg cytokine) were obtained from R&D Systems (Minneapolis, Minn.). β-amyloid peptides [amyloid protein fragment 1-40 and 1-42 (Aβ1-40/1-42)] were purchased from Sigma-Aldrich, St. Louis, Mo. The Aβ peptides were dissolved in endotoxin-free water, and Aβ aggregates were formed by incubation of Aβ, as described (Ishii et al., 2000). (xxv) Neural progenitor cell culture. Coronal sections (2 mm thick) of tissue containing the subventricular zone of the lateral ventricle were obtained from the brains of adult C57B1/6J mice. […] After centrifugation at 110×g for 15 min at room temperature, the tissue was mechanically dissociated by pipette trituration. Cells obtained from single-cell suspensions were plated (3500 cells/cm^2) in 75-cm^2 Falcon tissue-culture flasks (BD Biosciences, San Diego, Calif.), in NPC-culturing medium [Dulbecco's modified Eagles's medium (DMEM)/F12 medium (Gibco/Invitrogen, Carlsbad, Calif.) containing 2 mM L-glutamine, 0.6% glucose, 9.6 μg/ml putrescine, 6.3 ng/ml progesterone, 5.2 ng/ml sodium selenite, 0.02 mg/ml insulin, 0.1 mg/ml transferrin, 2 μg/ml heparin (all from Sigma-Aldrich, Rehovot, Israel), fibroblast growth factor-2 (human recombinant, 20 ng/ml), and epidermal growth factor (human recombinant, 20 ng/ml; both from Peprotech, Rocky Hill, N.J.)]. Spheres were passaged every 4-6 days and replated as single cells. Green fluorescent protein (GFP)-expressing NPCs were obtained as previously described (Pluchino et al., 2003). (xxvi) Primary microglial culture. Brains from neonatal (P0-P1) C57B1/6J mice were stripped of their meninges and minced with scissors under a dissecting microscope (Zeiss, Stemi DV4, Germany) in Leibovitz-15 medium (Biological Industries, Kibbutz Beit Ha-Emek, Israel). […] The cell suspension was washed in culture medium for glial cells [DMEM supplemented with 10% fetal calf serum (FCS; Sigma-Aldrich, Rehovot), L-glutamine (1 mM), sodium pyruvate (1 mM), penicillin (100 U/ml), and streptomycin ([…])] and cultured at 37° C./5% CO2 in 75-cm^2 Falcon tissue-culture flasks (BD Biosciences) coated with poly-D-lysine (PDL) (10 mg/ml; Sigma-Aldrich, Rehovot) in borate buffer (2.37 g borax and 1.55 g boric acid dissolved in 500 ml sterile water, pH 8.4) for 1 h, then rinsed thoroughly with sterile, glass-distilled water. Half of the medium was changed after 6 h in culture and every 2nd day thereafter, starting on day 2, for a total culture time of 10-14 days. […]

IFN-γ: recombinant interferon-γ
neurogenesis (GFP+/βIIIT+ cells) from NPCs co-cultured with treated microglia: increase in numbers of GFP^+/βIIIT^+ cells was dramatic
